This passage reports Kd results from ChEMBL document CHEMBL3991601, “The target landscape of clinical kinase drugs” (Science, 2017).

Experiment [1] concerns the target Rho-associated protein kinase 2 (Homo sapiens, UniProt O75116).
The target of experiment [2] is T1, Glycogen phosphorylase, liver form (Homo sapiens, UniProt P06737).
T1 sequence (P06737 whole entry): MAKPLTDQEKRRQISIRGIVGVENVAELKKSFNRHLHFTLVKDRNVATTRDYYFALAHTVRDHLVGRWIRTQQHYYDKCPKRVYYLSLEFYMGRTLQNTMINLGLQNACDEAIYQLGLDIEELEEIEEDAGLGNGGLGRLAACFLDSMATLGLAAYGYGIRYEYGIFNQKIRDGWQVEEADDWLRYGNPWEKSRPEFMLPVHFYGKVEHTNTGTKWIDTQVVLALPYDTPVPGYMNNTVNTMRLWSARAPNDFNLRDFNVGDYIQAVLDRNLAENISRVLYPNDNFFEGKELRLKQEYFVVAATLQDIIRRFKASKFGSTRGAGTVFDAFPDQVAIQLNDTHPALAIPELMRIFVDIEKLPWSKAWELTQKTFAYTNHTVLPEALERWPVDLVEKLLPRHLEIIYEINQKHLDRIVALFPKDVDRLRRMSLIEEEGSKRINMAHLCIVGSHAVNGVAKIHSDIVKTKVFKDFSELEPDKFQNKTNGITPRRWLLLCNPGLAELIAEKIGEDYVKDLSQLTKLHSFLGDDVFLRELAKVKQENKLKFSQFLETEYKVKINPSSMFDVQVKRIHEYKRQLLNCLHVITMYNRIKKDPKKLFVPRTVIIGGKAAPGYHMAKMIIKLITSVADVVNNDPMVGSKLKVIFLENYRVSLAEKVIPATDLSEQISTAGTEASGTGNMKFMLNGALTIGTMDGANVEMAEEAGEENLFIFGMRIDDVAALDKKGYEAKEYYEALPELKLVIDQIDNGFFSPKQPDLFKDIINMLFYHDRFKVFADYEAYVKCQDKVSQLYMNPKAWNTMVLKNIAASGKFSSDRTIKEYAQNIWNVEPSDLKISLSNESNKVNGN
The format is subcellular, K-562, COLO 205, SK-N-BE(2) and MV-4-11, Cell lysate. The conditions noted are these: read-out: Kd apparent.

Experiment [3] deals with T2, Serine/threonine-protein kinase D3 (Homo sapiens, UniProt O94806).
T2 sequence (O94806 whole entry): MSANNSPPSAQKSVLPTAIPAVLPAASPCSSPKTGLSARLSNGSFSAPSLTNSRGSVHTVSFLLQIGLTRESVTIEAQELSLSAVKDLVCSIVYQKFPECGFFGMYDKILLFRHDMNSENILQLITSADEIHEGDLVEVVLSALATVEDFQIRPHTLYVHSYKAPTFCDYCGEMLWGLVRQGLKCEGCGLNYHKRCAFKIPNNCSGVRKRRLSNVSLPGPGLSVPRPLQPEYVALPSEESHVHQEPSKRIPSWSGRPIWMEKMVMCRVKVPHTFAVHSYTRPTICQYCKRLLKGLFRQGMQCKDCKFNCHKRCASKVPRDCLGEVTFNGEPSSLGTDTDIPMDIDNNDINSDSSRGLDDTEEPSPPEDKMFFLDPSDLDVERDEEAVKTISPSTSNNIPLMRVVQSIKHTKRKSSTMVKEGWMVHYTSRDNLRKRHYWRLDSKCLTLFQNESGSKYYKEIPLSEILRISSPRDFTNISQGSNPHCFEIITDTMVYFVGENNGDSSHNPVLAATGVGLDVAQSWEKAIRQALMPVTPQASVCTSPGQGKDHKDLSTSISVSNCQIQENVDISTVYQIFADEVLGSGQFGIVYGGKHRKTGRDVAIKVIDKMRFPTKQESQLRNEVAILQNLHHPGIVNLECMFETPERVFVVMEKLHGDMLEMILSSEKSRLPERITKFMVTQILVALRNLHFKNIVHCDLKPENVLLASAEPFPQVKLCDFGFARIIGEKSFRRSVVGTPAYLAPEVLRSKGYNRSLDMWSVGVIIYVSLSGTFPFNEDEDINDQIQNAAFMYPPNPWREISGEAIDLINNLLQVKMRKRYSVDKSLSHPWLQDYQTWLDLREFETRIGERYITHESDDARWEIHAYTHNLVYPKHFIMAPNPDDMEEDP

Experiment [4] concerns the target T3, Interleukin-1 receptor-associated kinase 3 (Homo sapiens, UniProt Q9Y616).
T3 sequence (Q9Y616 whole entry): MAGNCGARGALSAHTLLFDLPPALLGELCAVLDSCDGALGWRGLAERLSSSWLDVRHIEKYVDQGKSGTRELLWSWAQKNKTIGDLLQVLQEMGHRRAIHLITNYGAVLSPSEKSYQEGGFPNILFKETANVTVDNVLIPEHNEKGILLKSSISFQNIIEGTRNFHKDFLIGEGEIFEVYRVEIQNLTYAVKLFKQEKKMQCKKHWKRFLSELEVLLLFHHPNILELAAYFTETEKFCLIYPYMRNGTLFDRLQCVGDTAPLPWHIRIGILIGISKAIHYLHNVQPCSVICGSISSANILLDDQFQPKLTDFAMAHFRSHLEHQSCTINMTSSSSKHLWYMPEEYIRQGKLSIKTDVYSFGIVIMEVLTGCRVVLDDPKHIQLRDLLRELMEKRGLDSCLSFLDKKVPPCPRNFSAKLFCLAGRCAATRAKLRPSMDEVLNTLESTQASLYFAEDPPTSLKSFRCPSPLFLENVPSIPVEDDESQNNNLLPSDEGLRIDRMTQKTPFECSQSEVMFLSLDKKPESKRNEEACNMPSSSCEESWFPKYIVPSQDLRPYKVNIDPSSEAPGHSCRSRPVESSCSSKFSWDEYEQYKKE

Another experiment addresses Adenosine kinase (Homo sapiens, UniProt P55263).

The source made the active and inactive calls. Cut-off read from the data, not from the text of the source, for most assays here: actives have a measured Kd and inactives only a lower limit. A value given as a limit tells only on which side of the number the result lay.
Note: in the data inactive means no Kd found up to 30 µM.

Chain of Rho-associated protein kinase 2 (O75116 whole entry): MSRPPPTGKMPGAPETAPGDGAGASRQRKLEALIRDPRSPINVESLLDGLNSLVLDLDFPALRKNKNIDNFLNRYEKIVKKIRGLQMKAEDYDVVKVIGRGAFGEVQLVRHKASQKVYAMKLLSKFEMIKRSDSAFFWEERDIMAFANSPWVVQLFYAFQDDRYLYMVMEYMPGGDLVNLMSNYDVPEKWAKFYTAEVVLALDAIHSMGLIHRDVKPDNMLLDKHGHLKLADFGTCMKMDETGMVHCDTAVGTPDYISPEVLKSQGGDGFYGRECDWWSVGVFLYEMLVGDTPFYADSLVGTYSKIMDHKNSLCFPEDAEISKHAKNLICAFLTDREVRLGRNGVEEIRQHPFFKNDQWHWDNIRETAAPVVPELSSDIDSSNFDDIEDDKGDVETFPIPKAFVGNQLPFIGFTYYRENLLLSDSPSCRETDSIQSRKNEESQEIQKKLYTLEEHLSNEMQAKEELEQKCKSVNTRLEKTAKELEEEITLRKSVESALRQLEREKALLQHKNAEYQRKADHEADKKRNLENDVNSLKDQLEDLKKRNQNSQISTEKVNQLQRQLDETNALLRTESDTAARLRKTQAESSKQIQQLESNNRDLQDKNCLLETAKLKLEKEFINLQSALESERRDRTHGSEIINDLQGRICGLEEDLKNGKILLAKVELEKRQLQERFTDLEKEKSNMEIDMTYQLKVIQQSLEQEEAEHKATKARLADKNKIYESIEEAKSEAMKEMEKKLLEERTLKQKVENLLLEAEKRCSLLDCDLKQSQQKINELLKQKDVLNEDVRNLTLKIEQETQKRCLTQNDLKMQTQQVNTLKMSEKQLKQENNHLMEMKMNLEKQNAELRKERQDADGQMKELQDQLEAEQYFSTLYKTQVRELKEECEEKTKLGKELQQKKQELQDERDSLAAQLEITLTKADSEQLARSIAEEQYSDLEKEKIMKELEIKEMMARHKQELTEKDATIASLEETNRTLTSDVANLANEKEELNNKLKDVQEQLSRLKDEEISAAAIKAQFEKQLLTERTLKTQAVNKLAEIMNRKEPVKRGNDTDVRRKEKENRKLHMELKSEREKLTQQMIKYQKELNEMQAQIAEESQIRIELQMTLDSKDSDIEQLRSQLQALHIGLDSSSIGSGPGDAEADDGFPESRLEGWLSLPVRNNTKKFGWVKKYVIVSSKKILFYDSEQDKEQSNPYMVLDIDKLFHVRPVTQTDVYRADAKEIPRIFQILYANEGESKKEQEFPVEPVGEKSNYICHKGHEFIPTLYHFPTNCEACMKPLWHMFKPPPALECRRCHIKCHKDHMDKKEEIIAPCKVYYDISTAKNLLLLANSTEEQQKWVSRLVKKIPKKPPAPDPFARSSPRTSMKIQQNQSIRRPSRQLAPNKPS
Chain of Adenosine kinase (P55263 whole entry): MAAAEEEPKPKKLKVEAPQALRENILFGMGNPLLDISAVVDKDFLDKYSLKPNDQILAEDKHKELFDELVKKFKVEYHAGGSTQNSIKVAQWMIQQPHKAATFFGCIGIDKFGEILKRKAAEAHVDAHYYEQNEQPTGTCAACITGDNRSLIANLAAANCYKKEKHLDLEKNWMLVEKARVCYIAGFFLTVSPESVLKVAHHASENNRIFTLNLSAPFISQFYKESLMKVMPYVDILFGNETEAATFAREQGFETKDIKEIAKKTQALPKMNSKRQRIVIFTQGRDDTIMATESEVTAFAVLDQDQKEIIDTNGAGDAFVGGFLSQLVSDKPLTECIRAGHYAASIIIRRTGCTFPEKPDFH

In the case of `FC(F)(F)c1ccc(CNc2ccc(Cc3c[nH]c4ncc(Cl)cc34)cn2)cn1` [PEXIDARTINIB], the Kd (in experiment [1]; in experiment [2]; in experiment [3]; in experiment [4]; on Adenosine kinase) was > 30 µM (inactive) each time.
For the molecule `CNC(=O)c1cc(COc2nnc(Nc3ccc(Cl)cc3)c3ccoc23)ccn1` [TELATINIB], the Kd (in experiment [1]; in experiment [2]; in experiment [3]; in experiment [4]; at Adenosine kinase) was > 30 µM (inactive) each time.
In the case of `COc1cc2ncnc3c2cc1OCCCCCN(C)Cc1ccc(Br)cc1N3` [JNJ-26483327], the Kd (in experiment [1]; in experiment [2]; in experiment [3]; in experiment [4]; on Adenosine kinase) was > 30 µM (inactive) in each case.
As for `CNC(=O)c1cccc(-c2ccc3c(N4CCOC[C@@H]4C)nc(N4CCOC[C@@H]4C)nc3n2)c1` [VISTUSERTIB], the Kd (in experiment [1]; in experiment [2]; in experiment [3]; in experiment [4]; at Adenosine kinase) was > 30 µM (inactive) in each case.
As for `CC1(COc2ccc3c(c2)ncn3-c2ccc3cccc(N4CCC(N)CC4)c3n2)COC1` [CRENOLANIB], the Kd in experiment [1] is > 30 µM (inactive); in experiment [2] it was > 30 µM (inactive); in experiment [3], 14.8 µM (active); in experiment [4] it was 1.51 µM (active); at Adenosine kinase it was > 30 µM (inactive).
`NC(=O)c1ccc(N(C(N)=O)c2c(F)cccc2F)nc1-c1ccc(F)cc1F` [VX-702]: the Kd (in experiment [1]; in experiment [2]; in experiment [3]; in experiment [4]; on Adenosine kinase) was > 30 µM (inactive) each time.
As to `Cc1cc(-c2cc(OC(=O)c3ccccc3)ccc2Cl)cc2nnc(Nc3ccc(OCCN4CCCC4)cc3)nc12` [TG100-801], the Kd (in experiment [1]; in experiment [2]; in experiment [3]; in experiment [4]; at Adenosine kinase) was > 30 µM (inactive) throughout.
For the molecule `O=C(Nc1ccc(OC(F)(F)F)cc1)c1sccc1NCc1ccnc2ccccc12` [OSI-930], the Kd (in experiment [1]; in experiment [2]; in experiment [3]; in experiment [4]; on Adenosine kinase) was > 30 µM (inactive) each time.
In the case of `COc1ccc(-c2ccc3ncc4c(c3c2)n(-c2ccc(N3CCNCC3)c(C(F)(F)F)c2)c(=O)n4C)cn1` [BGT-226 FREE BASE], the Kd (in experiment [1]; in experiment [2]; in experiment [3]; in experiment [4]; on Adenosine kinase) was > 30 µM (inactive) throughout.
With `O=C(O)c1ccc2c(c1)nc(Nc1cccc(Cl)c1)c1ccncc12` [SILMITASERTIB], the Kd (in experiment [1]; in experiment [2]; in experiment [3]; in experiment [4]; on Adenosine kinase) was > 30 µM (inactive) throughout.
As for `c1cc(OCCN2CCCCC2)cc(-c2n[nH]c3ccc(-c4nc[nH]n4)cc23)c1` [CC-401], the Kd in experiment [1] was > 30 µM (inactive); in experiment [2], > 30 µM (inactive); in experiment [3], 0.09 µM (active); in experiment [4], > 30 µM (inactive); at Adenosine kinase it was > 30 µM (inactive).
Regarding `CCN1CCN(Cc2ccc(Nc3ncc(F)c(-c4cc(F)c5nc(C)n(C(C)C)c5c4)n3)nc2)CC1` [ABEMACICLIB], the Kd in experiment [1] is > 30 µM (inactive); in experiment [2], > 30 µM (inactive); in experiment [3] it was 1.84 µM (active); in experiment [4], > 30 µM (inactive); at Adenosine kinase, > 30 µM (inactive).
Turning to `C=CC(=O)Nc1cccc(Nc2nc(Nc3ccc(N4CCN(C(C)=O)CC4)cc3OC)ncc2C(F)(F)F)c1` [ROCILETINIB], the Kd (in experiment [1]; in experiment [2]; in experiment [3]; in experiment [4]; on Adenosine kinase) was > 30 µM (inactive) in each case.
On to `O=c1[nH]c([C@@H]2CCCN2)nc2c1oc1ccc(Cl)cc12`, for which the Kd (in experiment [1]; in experiment [2]; in experiment [3]; in experiment [4]; at Adenosine kinase) was > 30 µM (inactive) each time.
With `Cc1c(Cn2c(C)nc3c(C(=O)O)cc(N4CCOCC4)cc32)cccc1C(F)(F)F` [GSK-2636771], the Kd (in experiment [1]; in experiment [2]; in experiment [3]; in experiment [4]; at Adenosine kinase) was > 30 µM (inactive) in each case.
For the molecule `COc1cc2ncnc(Nc3ccc(O)cc3)c2cc1OC` [WHI-P131], the Kd (in experiment [1]; in experiment [2]; in experiment [3]; in experiment [4]; on Adenosine kinase) was > 30 µM (inactive) throughout.
`Cn1c(=O)c(F)c(Nc2ccc(I)cc2F)c2c(=O)n(C[C@@H](O)CO)cnc21` [TAK-733]: the Kd (in experiment [1]; in experiment [2]; in experiment [3]; in experiment [4]; at Adenosine kinase) was > 30 µM (inactive) throughout.
For the molecule `COc1cccc(Nc2ncnn3ccc(CN4CC[C@@H](N)[C@H](O)C4)c23)c1` [BMS-690514], the Kd was > 30 µM (inactive) in experiment [1]; > 30 µM (inactive) in experiment [2]; 0.493 µM (active) in experiment [3]; > 30 µM (inactive) in experiment [4]; > 30 µM (inactive) on Adenosine kinase.
With `S=C(NCc1ccc2c(c1)OCO2)N1CCN(c2ncnc3c2oc2ccccc23)CC1` [AMUVATINIB], the Kd (in experiment [1]; in experiment [2]; in experiment [3]; in experiment [4]; on Adenosine kinase) was > 30 µM (inactive) throughout.
For `C=CC(=O)Nc1cc(Nc2nccc(-c3cn(C)c4ccccc34)n2)c(OC)cc1N(C)CCN(C)C` [OSIMERTINIB], the Kd (in experiment [1]; in experiment [2]; in experiment [3]; in experiment [4]; on Adenosine kinase) was > 30 µM (inactive) each time.
